{
  "source": "paper PMC5218480",
  "about": "(PLoS ONE, 2017)",
  "test_system": "MV-4-11 cells",
  "assay": "Gene expression microarray analysis (Affymetrix PrimeView) and GSEA",
  "assay_type": "cell-based, human",
  "design": "RFU PODN (11730768_x_at) / Fold change /veh PODN (11730768_x_at) / RFU LINC00158 (11744669_a_at) / Fold change /veh LINC00158 (11744669_a_at) / RFU DUSP10 (11751237_a_at) / Fold change /veh DUSP10 (11751237_a_at) / RFU ID3 (11757404_x_at) / Fold change /veh ID3 (11757404_x_at) / RFU PLEKHG5 (11737974_s_at) / Fold change /veh PLEKHG5 (11737974_s_at) / RFU LRRC4B (11730491_at) / Fold change /veh LRRC4B (11730491_at) / RFU GIMAP4 (11747438_a_at) / Fold change /veh GIMAP4 (11747438_a_at) / RFU KRT8 (11758183_x_at) / Fold change /veh KRT8 (11758183_x_at) / RFU CNN1 (11734310_a_at) / Fold change /veh CNN1 (11734310_a_at) / RFU VPS37D (11726825_at) / Fold change /veh VPS37D (11726825_at) / RFU C10orf10 (11716522_x_at) / Fold change /veh C10orf10 (11716522_x_at) / RFU KIR2DL2 /// KIR2DL4 /// KIR2DL5A /// KIR2DL5B /// KIR2DS1 /// KIR2DS2 /// KIR2DS3 /// KIR2DS4 /// KIR3DL3 /// KIR3DL3 /// KIR3DS1 (11738374_at) / Fold change /veh KIR2DL2 /// KIR2DL4 /// KIR2DL5A /// KIR2DL5B /// KIR2DS1 /// KIR2DS2 /// KIR2DS3 /// KIR2DS4 /// KIR3DL3 /// KIR3DL3 /// KIR3DS1 (11738374_at) / RFU C1QL1 (11718748_at) / Fold change /veh C1QL1 (11718748_at) / RFU TMPRSS4 (11747572_a_at) / Fold change /veh TMPRSS4 (11747572_a_at) / RFU HAMP (11756126_x_at) / Fold change /veh HAMP (11756126_x_at) / RFU RNFT2 (11725882_a_at) / Fold change /veh RNFT2 (11725882_a_at) / RFU NR4A2 (11747474_a_at) / Fold change /veh NR4A2 (11747474_a_at) / RFU ABCC12 (11746883_a_at) / Fold change /veh ABCC12 (11746883_a_at) / RFU TMEM136 (11760407_x_at) / Fold change /veh TMEM136 (11760407_x_at) / RFU CLDN22 /// WWC2 (11732394_at) / Fold change /veh CLDN22 /// WWC2 (11732394_at) / RFU HLA-DPB1 (11760878_x_at) / Fold change /veh HLA-DPB1 (11760878_x_at) / RFU SPINT1 (11716480_a_at) / Fold change /veh SPINT1 (11716480_a_at) / RFU GAP43 (11754022_s_at) / Fold change /veh GAP43 (11754022_s_at) / RFU A4GNT (11735810_at) / Fold change /veh A4GNT (11735810_at) / RFU PRB3 (11715151_x_at) / Fold change /veh PRB3 (11715151_x_at) / RFU TUBB4B (11761932_at) / Fold change /veh TUBB4B (11761932_at) / RFU CAPN14 (11732068_a_at) / Fold change /veh CAPN14 (11732068_a_at) / RFU TMCC2 (11721928_a_at) / Fold change /veh TMCC2 (11721928_a_at) / RFU IRGQ (11745062_a_at) / Fold change /veh IRGQ (11745062_a_at) / RFU FAM174B (11720279_a_at) / Fold change /veh FAM174B (11720279_a_at) / RFU TMPRSS4 (11748680_a_at) / Fold change /veh TMPRSS4 (11748680_a_at) / RFU FAM212B (11763350_a_at) / Fold change /veh FAM212B (11763350_a_at) / RFU PLEKHG5 (11743358_a_at) / Fold change /veh PLEKHG5 (11743358_a_at) / RFU ZSCAN30 (11745921_a_at) / Fold change /veh ZSCAN30 (11745921_a_at) / RFU CMKLR1 (11741424_a_at) / Fold change /veh CMKLR1 (11741424_a_at) / RFU LOC101060620 /// MAPK8IP1 (11723275_at) / Fold change /veh LOC101060620 /// MAPK8IP1 (11723275_at) / RFU SPTSSB (11747773_x_at) / Fold change /veh SPTSSB (11747773_x_at) / RFU PRSS12 (11739890_at) / Fold change /veh PRSS12 (11739890_at) / RFU BIN1 (11741810_x_at) / Fold change /veh BIN1 (11741810_x_at) / RFU WNT11 (11732464_a_at) / Fold change /veh WNT11 (11732464_a_at) / RFU C10orf10 (11716521_a_at) / Fold change /veh C10orf10 (11716521_a_at) / RFU C5orf56 (11738089_at) / Fold change /veh C5orf56 (11738089_at) / RFU CYB561 (11721691_x_at) / Fold change /veh CYB561 (11721691_x_at) / RFU ANKRD19P (11752326_a_at) / Fold change /veh ANKRD19P (11752326_a_at) / RFU OR2T12 /// OR2T33 /// OR2T8 (11738714_s_at) / Fold change /veh OR2T12 /// OR2T33 /// OR2T8 (11738714_s_at) / RFU VCAN (11748164_a_at) / Fold change /veh VCAN (11748164_a_at) / RFU JSRP1 (11732532_at) / Fold change /veh JSRP1 (11732532_at) / RFU KRTAP10-11 (11738290_x_at) / Fold change /veh KRTAP10-11 (11738290_x_at) / RFU MYO3A (11730013_a_at) / Fold change /veh MYO3A (11730013_a_at) / RFU EBF3 (11725865_a_at) / Fold change /veh EBF3 (11725865_a_at) / RFU CAMK2N1 (11719241_x_at) / Fold change /veh CAMK2N1 (11719241_x_at) / RFU C5orf56 (11738088_a_at) / Fold change /veh C5orf56 (11738088_a_at) / RFU OLFML3 (11715873_a_at) / Fold change /veh OLFML3 (11715873_a_at) / RFU LOC100653217 /// NTM (11731650_a_at) / Fold change /veh LOC100653217 /// NTM (11731650_a_at) / RFU MAPK11 (11762145_a_at) / Fold change /veh MAPK11 (11762145_a_at) / RFU FIZ1 (11724087_x_at) / Fold change /veh FIZ1 (11724087_x_at) / RFU OASL (11726364_x_at) / Fold change /veh OASL (11726364_x_at) / RFU SOX15 (11748057_x_at) / Fold change /veh SOX15 (11748057_x_at) / RFU CD79A (11719716_a_at) / Fold change /veh CD79A (11719716_a_at) / RFU HIST1H1D (11736915_at) / Fold change /veh HIST1H1D (11736915_at) / RFU CASKIN2 (11723855_a_at) / Fold change /veh CASKIN2 (11723855_a_at) / RFU LOC730098 (11760151_x_at) / Fold change /veh LOC730098 (11760151_x_at) / RFU OR4N2 (11742367_at) / Fold change /veh OR4N2 (11742367_at) / RFU PRRT2 (11749266_a_at) / Fold change /veh PRRT2 (11749266_a_at) / RFU SNX32 (11753110_a_at) / Fold change /veh SNX32 (11753110_a_at) / RFU CDHR5 (11726645_a_at) / Fold change /veh CDHR5 (11726645_a_at) / RFU RCAN1 (11760418_a_at) / Fold change /veh RCAN1 (11760418_a_at) / RFU FAM167A (11723789_a_at) / Fold change /veh FAM167A (11723789_a_at) / RFU FAM26E (11764081_at) / Fold change /veh FAM26E (11764081_at) / RFU ISYNA1 (11749810_s_at) / Fold change /veh ISYNA1 (11749810_s_at) / RFU ACY1 (11761880_at) / Fold change /veh ACY1 (11761880_at) / RFU 11764098_at / Fold change /veh 11764098_at / RFU SAMD14 (11745864_x_at) / Fold change /veh SAMD14 (11745864_x_at) / RFU NPB (11741838_a_at) / Fold change /veh NPB (11741838_a_at) / RFU TMPRSS6 (11731388_a_at) / Fold change /veh TMPRSS6 (11731388_a_at) / RFU KRTAP10-2 (11738614_at) / Fold change /veh KRTAP10-2 (11738614_at) / RFU ARHGAP8 /// PRR5-ARHGAP8 (11727945_x_at) / Fold change /veh ARHGAP8 /// PRR5-ARHGAP8 (11727945_x_at) / RFU KRTAP5-7 /// NADSYN1 (11734609_at) / Fold change /veh KRTAP5-7 /// NADSYN1 (11734609_at) / RFU RASL12 (11751679_a_at) / Fold change /veh RASL12 (11751679_a_at) / RFU CDKN2B (11736163_a_at) / Fold change /veh CDKN2B (11736163_a_at) / RFU PRF1 (11729649_at) / Fold change /veh PRF1 (11729649_at) / RFU, ZNF638 /// ZNF638-IT1 / Fold change vs veh, ZNF638 /// ZNF638-IT1 / RFU, PANK3 / Fold change vs veh, PANK3 / RFU, SH3YL1 / Fold change vs veh, SH3YL1 / RFU, ZEB2 / Fold change vs veh, ZEB2 / RFU, NRIP1 / Fold change vs veh, NRIP1 / RFU, PTTG1IP / Fold change vs veh, PTTG1IP / RFU, CAPN2 / Fold change vs veh, CAPN2 / RFU, MED14 / Fold change vs veh, MED14 / RFU, SNORA58 / Fold change vs veh, SNORA58 / RFU, C1orf63 / Fold change vs veh, C1orf63 / RFU, LRRFIP1 / Fold change vs veh, LRRFIP1 / RFU, NDUFAF7 / Fold change vs veh, NDUFAF7 / RFU, SLC12A2 / Fold change vs veh, SLC12A2 / RFU, IBTK / Fold change vs veh, IBTK / RFU, ESF1 / Fold change vs veh, ESF1 / Fold change vs veh, TMEM50B / RFU, TAOK1 / Fold change vs veh, TAOK1 / RFU, ACBD3 / Fold change vs veh, ACBD3 / RFU, TMA16 / Fold change vs veh, TMA16 / RFU, RWDD3 / Fold change vs veh, RWDD3 / RFU, BCAT1 / Fold change vs veh, BCAT1 / RFU, EDEM3 / Fold change vs veh, EDEM3 / RFU, TMEM33 / Fold change vs veh, TMEM33 / RFU, WDR75 / Fold change vs veh, WDR75 / RFU, AHCTF1 / Fold change vs veh, AHCTF1 / RFU, TFRC / Fold change vs veh, TFRC / RFU, ZDHHC17 / Fold change vs veh, ZDHHC17 / RFU, NOM1 / Fold change vs veh, NOM1 / RFU, ARL8B / Fold change vs veh, ARL8B / RFU, ZBTB11 / Fold change vs veh, ZBTB11 / RFU, TAMM41 / Fold change vs veh, TAMM41 / RFU, KIAA1704 /// LOC100996395 / Fold change vs veh, KIAA1704 /// LOC100996395 / RFU, ING1 / Fold change vs veh, ING1 / RFU, TRMT61B / Fold change vs veh, TRMT61B / RFU, FUBP3 / Fold change vs veh, FUBP3 / RFU, TP53 / Fold change vs veh, TP53 / RFU, TNKS2 / Fold change vs veh, TNKS2 / RFU, ZFP14 / Fold change vs veh, ZFP14 / RFU, ACTR2 / Fold change vs veh, ACTR2 / RFU, PPP3R1 / Fold change vs veh, PPP3R1 / RFU, PIK3R1 / Fold change vs veh, PIK3R1 / RFU, HNRNPA1 / Fold change vs veh, HNRNPA1 / RFU, RNF170 / Fold change vs veh, RNF170 / RFU, ZNF28 / Fold change vs veh, ZNF28 / RFU, RNGTT / Fold change vs veh, RNGTT / RFU, OGT / Fold change vs veh, OGT / RFU, BRD1 / Fold change vs veh, BRD1 / RFU, MARS / Fold change vs veh, MARS / RFU, ZNF655 / Fold change vs veh, ZNF655 / RFU, FAHD1 / Fold change vs veh, FAHD1 / RFU, BDP1 / Fold change vs veh, BDP1 / RFU, LRRCC1 / Fold change vs veh, LRRCC1 / RFU, ARID1A / Fold change vs veh, ARID1A / RFU, ZNF146 / Fold change vs veh, ZNF146 / RFU, ZNF330 / Fold change vs veh, ZNF330 / RFU, GPN3 / Fold change vs veh, GPN3 / RFU, C9orf123 / Fold change vs veh, C9orf123 / RFU, N4BP2L2 / Fold change vs veh, N4BP2L2 / RFU, ARFIP1 / Fold change vs veh, ARFIP1 / RFU, FAM179B / Fold change vs veh, FAM179B / RFU, BCL10 / Fold change vs veh, BCL10 / RFU, UHRF1BP1L / Fold change vs veh, UHRF1BP1L / RFU, BET1 / Fold change vs veh, BET1 / RFU, CNOT2 / Fold change vs veh, CNOT2 / RFU, ZNF268 / Fold change vs veh, ZNF268 / Fold change vs veh, ZNF507 / RFU, DGCR2 / Fold change vs veh, DGCR2 / RFU, WDSUB1 / Fold change vs veh, WDSUB1 / Fold change vs veh, HSP90B1 /// MIR3652 / RFU, ADSS / Fold change vs veh, ADSS / RFU, GK / Fold change vs veh, GK / RFU, ZNF148 / Fold change vs veh, ZNF148 / RFU, TAF9 / Fold change vs veh, TAF9 / RFU, SLC1A5 / Fold change vs veh, SLC1A5 / RFU, SLMO2 / Fold change vs veh, SLMO2 / RFU, ABCC4 / Fold change vs veh, ABCC4 / RFU, LOC101060439 /// RAP1B / Fold change vs veh, LOC101060439 /// RAP1B / RFU, RFX7 / Fold change vs veh, RFX7 / RFU, GTPBP10 / Fold change vs veh, GTPBP10 / RFU, CNEP1R1 / Fold change vs veh, CNEP1R1 / RFU, BIVM-ERCC5 /// ERCC5 / Fold change vs veh, BIVM-ERCC5 /// ERCC5 / RFU, ILF3 / Fold change vs veh, ILF3 / RFU 11762660_at / Fold change /veh 11762660_at / RFU VCAN (11757783_s_at) / Fold change /veh VCAN (11757783_s_at) / RFU DDX43 (11728927_at) / Fold change /veh DDX43 (11728927_at) / RFU KRT8 (11758188_x_at) / Fold change /veh KRT8 (11758188_x_at) / RFU NKD1 (11759106_at) / Fold change /veh NKD1 (11759106_at) / RFU SRD5A1 (11742802_a_at) / Fold change /veh SRD5A1 (11742802_a_at) / RFU TPSAB1 /// TPSB2 (11721975_s_at) / Fold change /veh TPSAB1 /// TPSB2 (11721975_s_at) / RFU GSTM3 (11746129_a_at) / Fold change /veh GSTM3 (11746129_a_at) / RFU IL23R (11737362_x_at) / Fold change /veh IL23R (11737362_x_at) / RFU TMEM51 (11727254_a_at) / Fold change /veh TMEM51 (11727254_a_at) / RFU PIWIL2 (11732686_x_at) / Fold change /veh PIWIL2 (11732686_x_at) / RFU ORM1 (11744905_x_at) / Fold change /veh ORM1 (11744905_x_at) / RFU CCDC152 (11743942_at) / Fold change /veh CCDC152 (11743942_at) / RFU ECM1 (11717891_a_at) / Fold change /veh ECM1 (11717891_a_at) / RFU IL23R (11748794_a_at) / Fold change /veh IL23R (11748794_a_at) / RFU TNFAIP8L3 (11732012_x_at) / Fold change /veh TNFAIP8L3 (11732012_x_at) / RFU MBOAT4 (11741988_at) / Fold change /veh MBOAT4 (11741988_at) / RFU 11764193_at / Fold change /veh 11764193_at / RFU TMEM53 (11763286_at) / Fold change /veh TMEM53 (11763286_at) / RFU MAGEB2 (11727129_at) / Fold change /veh MAGEB2 (11727129_at) / RFU TMEM200A (11744735_a_at) / Fold change /veh TMEM200A (11744735_a_at) / RFU CCDC152 (11751479_a_at) / Fold change /veh CCDC152 (11751479_a_at) / RFU FAM211A (11726209_a_at) / Fold change /veh FAM211A (11726209_a_at) / RFU RGS16 (11746705_a_at) / Fold change /veh RGS16 (11746705_a_at) / RFU VCAN (11755009_s_at) / Fold change /veh VCAN (11755009_s_at) / RFU RHOB (11743442_s_at) / Fold change /veh RHOB (11743442_s_at) / RFU RGS16 (11720943_a_at) / Fold change /veh RGS16 (11720943_a_at) / RFU RGS16 (11720944_at) / Fold change /veh RGS16 (11720944_at) / RFU, VPS4B / Fold change vs veh, VPS4B / RFU, CREB1 / Fold change vs veh, CREB1 / RFU, DNAJC13 / Fold change vs veh, DNAJC13 / RFU, GNAQ / Fold change vs veh, GNAQ / RFU, CDK5R1 / Fold change vs veh, CDK5R1 / RFU, ZRANB3 / Fold change vs veh, ZRANB3 / RFU, CUL4A / Fold change vs veh, CUL4A / RFU, CCNY / Fold change vs veh, CCNY / RFU, UFL1 / Fold change vs veh, UFL1 / RFU, COG3 / Fold change vs veh, COG3 / RFU, DIAPH2 / Fold change vs veh, DIAPH2 / RFU, SKA2 / Fold change vs veh, SKA2 / RFU, AFF3 / Fold change vs veh, AFF3 / RFU, LMF1 / Fold change vs veh, LMF1 / RFU, IPO11 / Fold change vs veh, IPO11 / RFU, DFFB / Fold change vs veh, DFFB / RFU, FOXP1 / Fold change vs veh, FOXP1 / RFU, CARD8 / Fold change vs veh, CARD8 / RFU, STRN3 / Fold change vs veh, STRN3 / RFU, ADK / Fold change vs veh, ADK / RFU, RASSF2 / Fold change vs veh, RASSF2 / RFU, WIPF1 / Fold change vs veh, WIPF1 / RFU, LARP1B / Fold change vs veh, LARP1B / RFU, RASA1 / Fold change vs veh, RASA1 / RFU, RB1 / Fold change vs veh, RB1 / RFU, PPFIA1 / Fold change vs veh, PPFIA1 / RFU, MAT2A / Fold change vs veh, MAT2A / RFU, CCT5 / Fold change vs veh, CCT5 / RFU, WDR92 / Fold change vs veh, WDR92 / RFU, CUX1 / Fold change vs veh, CUX1 / RFU, TTC7A / Fold change vs veh, TTC7A / RFU, TMEM135 / Fold change vs veh, TMEM135 / RFU, DEPTOR / Fold change vs veh, DEPTOR / RFU, CPM / Fold change vs veh, CPM / RFU, DNAJB6 / Fold change vs veh, DNAJB6 / RFU, CACNA2D3 / Fold change vs veh, CACNA2D3 / RFU, DTX4 / Fold change vs veh, DTX4 / RFU, TFCP2 / Fold change vs veh, TFCP2 / RFU, GMCL1 /// GMCL1P1 / Fold change vs veh, GMCL1 /// GMCL1P1 / RFU, AEBP2 / Fold change vs veh, AEBP2 / RFU, SNHG1 /// SNORD22 /// SNORD25 /// SNORD26 /// SNORD27 /// SNORD28 /// SNORD29 /// SNORD31 / Fold change vs veh, SNHG1 /// SNORD22 /// SNORD25 /// SNORD26 /// SNORD27 /// SNORD28 /// SNORD29 /// SNORD31 / Fold change (Aza/veh), C12orf56 (ProbeSet 11735607_a_at) / Fold change (ACY-1035/veh), C12orf56 (ProbeSet 11735607_a_at) / Fold change (Aza/veh), FGFR1OP (ProbeSet 11751329_s_at) / Fold change (ACY-1035/veh), FGFR1OP (ProbeSet 11751329_s_at) / Fold change (Aza/veh), VPS36 (ProbeSet 11739960_a_at) / Fold change (ACY-1035/veh), VPS36 (ProbeSet 11739960_a_at) / RFU SYPL1 (11715823_x_at) / Fold change /veh SYPL1 (11715823_x_at) / RFU IGFBP7 (11715501_s_at) / Fold change /veh IGFBP7 (11715501_s_at) / RFU REEP3 (11722064_at) / Fold change /veh REEP3 (11722064_at) / RFU IGLL1 (11728026_x_at) / Fold change /veh IGLL1 (11728026_x_at): dose or concentration left out as unconfirmed",
  "conditions": "ProbeSet 11748670_a_at; LIST B",
  "data": [
    {"smiles": "Nc1ncn([C@@H]2O[C@H](CO)[C@@H](O)[C@H]2O)c(=O)n1", "note": "[azacitidine]", "values": [
      {"measurement": "RFU, PIK3R1", "value": 80.66, "unit": "RFU"}
    ]}
  ]
}
